Assays:
[1] = system: Human umbilical vein endothelial cell; experiment: In Vitro Angiogenesis Assay (morphogenesis / tube formation on Matrigel, ECMatrix kit); assay type: cell-based; set-up: key to Results: Individual cells, well separated (+++++); Cells begin to migrate and align themselves (++++); Cells begin to line but not sprouting (+++); Visible Sprouting (++); Closed polygons begins to form (+); settings: for Results: score of the extent of cellular networks, HUVECs 10^4 cells/well, inhibitors 1mM and 10 mM, 8 hours incubation at 37 °C, higher score = greater inhibition of angiogenesis
Experimental: Human umbilical vein endothelial cell was purchased from Cambrex Co. (East Rutherford, New Jersey) and maintained in EGM (Endothelial Growth Medium) supplemented with 2% FBS, 0.1% EGF, 0.1% Hydrocortisone, 0.1% GA-1000 and 0.4% BBE.
The morphogenesis assay on Matrigel was performed according to the manufacturer's instructions (Chemicon International). The ECMatrix™ kit consists of laminin, collagen type IV, heparan sulfate, proteoglycans, entactin and nidogen. It also contains various growth factors (TGF-β, FGF) and proteolytic enzymes (plasminogen, tPA, MMPs) that are normally produced in EHS tumors. The incubation condition was optimized for maximal tube-formation as follows: 50µl of EC Matrix™ was suitably diluted in the ratio 9:1 with 10X diluent buffer and used for coating the 96-well plate. The coated plates were incubated at 37° C for 1 hr. to allow the Matrix solution to solidify. In the meantime the HUVECs that were cultured for 24 hours in EGM with 2% FBS was trypsinised and resuspended in the growth media and the cells were counted. After 1 hr. pre-incubation of the plate with Matrix solution, the HUVECs were plated at 10^4 cells/well in the absence or in the presence of different VEGFR inhibitors (1mM and 10 mM). After 8 hours incubation at 37 °C, the cell three-dimensional organization (cellular network structures) was examined under an inverted photomicroscope. Each treatment was performed in triplicate.
Activated endothelial cells form cellular networks (mesh like structures) resembling capillary tubes sprouting into the stromal space. The formation of these cellular networks is a dynamic process, which started migration and alignment of cells followed by the development of capillary tubes like structures, sprouting of new branches and finally the formation of the cellular networks. Although this in vitro angiogenesis kit is designed only as a qualitative assay, we have made an attempt to quantitate the degree of angiogenesis using a scoring method. The scoring was based on the extent of the cellular networks that were observed as follows: • Individual cells, well separated (+++++) • Cells begin to migrate and align themselves (++++) • Cells begin to line but not sprouting (+++) • Visible Sprouting (++) • Closed polygons begins to form (+).
According to our qualitative assessment, the higher the scoring the greater the efficiency of the compound for inhibiting endothelial cell mediated angiogenesis.

[2] = system: VEGFR; experiment: Assay of VEGF Receptor Tyrosine Kinase Activity (VEGFR immunoprecipitated from cell lysate, non-radioactive PTK ELISA); assay type: biochemical; settings: VEGFR immunoprecipitated from cell lysate with VEGFR specific antibody, read-out: IC50 for inhibiting VEGFR kinase
Description: Protein Tyrosine Kinases (PTKs) perform a critical role in signal transduction pathways that control cell proliferation, differentiation, metabolism, and apoptosis. Phosphorylation of proteins by PTKs is essential for the regulation of these biological mechanisms and defects in these pathways may result in a number of human diseases, including cancer. The important aspect of these enzymes in cellular regulation is accentuated by the fact that for a large number of kinases a corresponding viral oncogene product has been identified. […] CHEMICON's non-radioactive Tyrosine Kinase Activity Assay provides a simple, convenient and specific method for quantification and comparative determination of a wide range of PTKs. […]
The non-radioactive Tyrosine Kinase Activity Assay Kit consists of a synthetic Biotinylated Peptide Substrate, a Biotinylated Phosphopeptide, purified Phosphotyrosine specific monoclonal antibody conjugated to horseradish peroxidase (HRP) and other components required to perform 96 ELISA-based assays. […] The quantity of phosphate incorporated into the tyrosine kinase substrate is determined utilizing the phosphopeptide standard curve. […] The assay reaction would be terminated by the addition of 100 µl of stop solution and finally, the absorbance was measured on a standard microplate reader at 450nm. […]

[3] = system: GI-101A; experiment: Cytotoxicity towards breast carcinoma cell line GI-101A; assay type: cell-based; settings: GI-101A breast carcinoma cell line
[4] = system: MCF-7; experiment: Cytotoxicity towards breast carcinoma cell line MCF-7; assay type: cell-based; settings: MCF-7 breast carcinoma cell line

Row | Structure (SMILES) | EC50 ([1]; Homo sapiens, Endothelial cell, estimated, read-out: EC50 value for anti-antigenic effect) | Results [1] | IC50 [2] | cytotoxicity [3] | cytotoxicity [4]
1 | COc1ccc(NCC(O)Cn2cnc3c2c(=O)n(C)c(=O)n3C)cc1 (centres unmarked) [Example 1] | 250 nM | +++++ | 400 nM | produced cytotoxicity | produced cytotoxicity
2 | CCCCCCCCCCCCCCCCOc1ccc(C(NNS(=O)(=O)c2cccc(C(=O)O)c2)N2CCCCC2)cc1 (centres unmarked) [Example 2] |  | ++++ |  |  | 
3 | CCCCCCCCCCCCCCCCCCOc1ccc(C(=O)CC(=O)Nc2ccc(Sc3cccc(C(=O)O)c3)c(C(=O)O)c2)cc1 [Example 5] |  | +++ |  |  | 
4 | CCC(CNCCO)Nc1nc2c(c(=O)n(C)c(=O)n2C)n1Cc1ccccc1 (centres unmarked) [Example 7] |  | ++ |  |  | 
